Molecules are shown by their SMILES. Read-outs that look alike come from different tables or passages of the source.

The values that follow come from paper PMC2586329 (Biochemistry, 2008).

One test deals with EcDos. The following applies: cited from earlier work.
Another test concerns EcDosH. Particulars: cited from earlier work.
The test system of another test is full-length EcDos. Particulars: pH 8; cited from earlier work.
The next test has as its system ferrous EcDosH. The following applies: cited from earlier work.
Another test has as its target ferric EcDosH (Escherichia coli, UniProt P76129).

Sequence of ferric EcDosH (P76129 1-139): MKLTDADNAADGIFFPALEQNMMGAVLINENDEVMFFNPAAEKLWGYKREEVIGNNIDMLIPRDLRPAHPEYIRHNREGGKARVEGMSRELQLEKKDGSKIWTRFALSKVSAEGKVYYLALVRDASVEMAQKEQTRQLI

Consider `F` [fluoride], for which the affinity for binding result in the test with EcDos and with EcDosH was “very low affinities” throughout.
As to `c1c[nH]cn1` [imidazole], the affinity for binding entry in the test on EcDos and with EcDosH was “very low affinities” throughout.
As for `[N-]=[N+]=[N-]` [azide], the affinity for binding entry in the test with EcDos and in the test with EcDosH was “very low affinities” each time.
Regarding `[C-]#[O+]` [CO], the association rate constant with full-length EcDos was 810 M⁻¹ s⁻¹; in the test on ferrous EcDosH (pH 7) it was 1100 M⁻¹ s⁻¹; in the test with ferrous EcDosH (pH 8) it was 7800 M⁻¹ s⁻¹.
Take `OO` [H2O2, hydrogen peroxide]: the “effect on the heme at high hydrogen peroxide concentrations” value on ferric EcDosH is reported as “oxidative degradation of the heme is observed”.
Take `O=O` [O2]: the association rate constant is 1900 M⁻¹ s⁻¹ in the test with full-length EcDos, 2600 M⁻¹ s⁻¹ in the test on ferrous EcDosH (pH 7) and 31000 M⁻¹ s⁻¹ in the test with ferrous EcDosH (pH 8).
